Assay [1] addresses T1, human CCR6 (Homo sapiens, UniProt P51684).
T1 sequence (P51684 1-374): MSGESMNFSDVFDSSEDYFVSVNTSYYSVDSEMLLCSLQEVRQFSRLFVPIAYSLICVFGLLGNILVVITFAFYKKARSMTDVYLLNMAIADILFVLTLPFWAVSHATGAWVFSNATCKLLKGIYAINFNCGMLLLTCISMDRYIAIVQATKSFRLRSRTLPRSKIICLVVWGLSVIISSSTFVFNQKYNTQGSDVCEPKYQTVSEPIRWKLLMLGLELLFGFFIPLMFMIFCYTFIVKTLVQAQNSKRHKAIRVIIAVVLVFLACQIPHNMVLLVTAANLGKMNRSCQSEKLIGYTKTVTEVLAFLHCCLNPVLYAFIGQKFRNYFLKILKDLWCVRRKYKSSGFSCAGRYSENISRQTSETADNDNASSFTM
Briefly: Human CCR6-CRE reporter assay. It is filed as cell-based. Details: The second construct contained the open reading frame of human CCR6 in the pUNO1 backbone; host or cells: 293FT cells. The following applies: relative -Log IC50; 293FT cells transfected with human CCR6 and CRE-luciferase reporter; 6 μM Forskolin, 6 nM CCL20; 5 h. In a few lines: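 293FT cells transiently co-transfected with human CCR6 and a CRE-luc2P reporter, used 48 h later. Compounds incubated with cells in medium containing 6 μM Forskolin and 6 nM CCL20 (assay-medium levels), 0.1% DMSO final, 5 h at 37° C; luminescence read, relative −Log IC50 from four-parameter fit.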

In assay [2] the target is T1, human CCR6. Put plainly: CHO-K1 CCR6 chemotaxis assay towards CCL20. It is filed as cell-based. The following applies: relative -Log IC50; CHO-K1 cells overexpressing human CCR6; migration towards 100 ng/ml CCL20; 4 h. An excerpt:
CHO-K1 CCR6 Chemotaxis Assay Towards CCL20
Cells overexpressing human CCR6 were used in the chemotaxis assay (DiscoverX, cAMP Hunter™ CHO-K1 CCR6 Gi Cell Line). Growth medium of these cells consisted of DMEM/F12, non-essential Amino acids (1×NEAA, Gibco 11140050), 10% FBS and 1× pen/strep (Gibco 15140). For the chemotaxis assay, Corning Transwell plates were used with a pore size of 8 m (Corning 351164). Cells were harvested using trypsin and diluted to 4*10^6 cells/ml in chemotaxis medium (DMEM, 0.25% BSA, pen/strep). Compounds were four-fold serially diluted in DMSO. Further dilutions were made in chemotaxis medium. Cells were incubated with test compounds for 30 min at 37° C. prior to initiation of the assay (2*10^6 cells/ml). Final DMSO concentration in the assay was 0.2%. Wells of the Transwell plates were filled with 200 μl chemotaxis medium containing 100 ng/ml CCL20 (R&D systems 360-MP). 50 μl of the cell/compound suspension was added to the inserts of the Transwell plates (100,000 cells/insert). The Transwell plates were placed in an incubator at 37° C., 5% CO2 for 4 h. After 4 h, the number of migrated cells was quantified using CellTiter Glo (Promega). Percentage inhibition values were calculated based on the low and high signal obtained with 0.2% DMSO in chemotaxis medium without and with CCL20, respectively. The relative −Log IC50 was determined with GraphPad Prism 9 using a four-parameter dose-response model.

As a reminder, the IC50 is the midpoint of a concentration-inhibition curve. A low value points to greater potency in that assay.

For `O=S(=O)(c1ccc(-c2cn3ccnc3cn2)cc1)[C@H]1CC[C@H](Nc2ccc(S(F)(F)(F)(F)F)cc2)CC1` [Example 44, 4-(pentafluoro-λ^6-sulfanyl)-N-[trans-4-(4-{imidazo[1,2-a]pyrazin-6-yl}benzenesulfonyl)cyclohexyl]aniline], the IC50 against human CCR6 [1] and against human CCR6 [2] was 0.158 µM in each case.

On to `CNC(=O)c1ccc(-c2ccc(S(=O)(=O)[C@H]3CC[C@H](Nc4ccc(S(F)(F)(F)(F)F)cc4)CC3)cc2)nc1` [Example 47, N-methyl-6-(4-{[trans-4-{[4-(pentafluoro-λ^6-sulfanyl)phenyl]Amino}cyclohexyl]sulfonyl}phenyl)pyridine-3-carboxamide], for which the concentration for half-maximal inhibition (IC50) on human CCR6 [1] was 0.0631 µM; on human CCR6 [2], 0.794 µM.

In the case of `CNC(=O)c1cc(-c2ccc(S(=O)(=O)[C@H]3CC[C@H](Nc4ccc(S(F)(F)(F)(F)F)cc4)CC3)cc2)ccn1` [Example 48, N-methyl-4-(4-{[trans-4-{[4-(pentafluoro-λ^6-sulfanyl)phenyl]Amino}cyclohexyl]sulfonyl}phenyl)pyridine-2-carboxamide], the IC50 on human CCR6 [1] and at human CCR6 [2] was 0.0398 µM throughout.

For the compound `NC(=O)c1ccc(-c2ccc(S(=O)(=O)[C@H]3CC[C@H](Nc4ccc(S(F)(F)(F)(F)F)cc4)CC3)cc2)nc1` [Example 49, 6-(4-{[trans-4-{[4-(pentafluoro-λ^6-sulfanyl)phenyl]Amino}cyclohexyl]sulfonyl}phenyl)pyridine-3-carboxamide], the IC50 is 0.0794 µM against human CCR6 [1] and 0.501 µM at human CCR6 [2].

For `O=C1NCc2cc(-c3ccc(S(=O)(=O)[C@H]4CC[C@H](Nc5ccc(S(F)(F)(F)(F)F)cc5)CC4)cc3)ccc21` [Example 58, 5-(4-{[trans-4-{[4-(pentafluoro-λ^6-sulfanyl)phenyl]Amino}cyclohexyl]sulfonyl}phenyl)-2,3-dihydro-1H-isoindol-1-one], the IC50 is 0.2 µM on human CCR6 [1] and 0.0158 µM on human CCR6 [2].

Consider `O=C1Cc2ccc(-c3ccc(S(=O)(=O)[C@H]4CC[C@H](Nc5ccc(S(F)(F)(F)(F)F)cc5)CC4)cc3)cc2N1` [Example 59, 6-(4-{[trans-4-{[4-(pentafluoro-λ^6-sulfanyl)phenyl]Amino}cyclohexyl]sulfonyl}phenyl)-2,3-dihydro-1H-indol-2-one], for which the IC50 against human CCR6 [1] is 0.158 µM; against human CCR6 [2], 0.0158 µM.

Consider `O=C1NCCc2ccc(-c3ccc(S(=O)(=O)[C@H]4CC[C@H](Nc5ccc(S(F)(F)(F)(F)F)cc5)CC4)cc3)cc21` [Example 60, 7-(4-{[trans-4-{[4-(pentafluoro-λ^6-sulfanyl)phenyl]Amino}cyclohexyl]sulfonyl}phenyl)-1,2,3,4-tetrahydroisoquinolin-1-one], for which the values for the IC50 at human CCR6 [1] and against human CCR6 [2] were 0.158 µM and 0.00794 µM, respectively.

As to `O=C1NCCc2cc(-c3ccc(S(=O)(=O)[C@H]4CC[C@H](Nc5ccc(S(F)(F)(F)(F)F)cc5)CC4)cc3)ccc21` [Example 61, 6-(4-{[trans-4-{[4-(pentafluoro-λ^6-sulfanyl)phenyl]Amino}cyclohexyl]sulfonyl}phenyl)-1,2,3,4-tetrahydroisoquinolin-1-one], the IC50 against human CCR6 [1] is 0.126 µM; at human CCR6 [2], 0.0316 µM.

With `CC(C)c1cnc2ccc(-c3ccc(S(=O)(=O)[C@H]4CC[C@H](Nc5ccc(S(F)(F)(F)(F)F)cc5)CC4)cc3)cn12` [Example 63, 4-(pentafluoro-λ^6-sulfanyl)-N-[trans-4-{4-[3-(propan-2-yl)imidazo[1,2-a]pyridin-6-yl]benzenesulfonyl}cyclohexyl]aniline], the IC50 on human CCR6 [1] is 0.0398 µM; against human CCR6 [2], 0.0126 µM.

For `O=c1[nH]nc2ccc(-c3ccc(S(=O)(=O)[C@H]4CC[C@H](Nc5ccc(S(F)(F)(F)(F)F)cc5)CC4)cc3)cn12` [Example 66, 6-(4-{[trans-4-{[4-(pentafluoro-λ^6-sulfanyl)phenyl]Amino}cyclohexyl]sulfonyl}phenyl)-2H,3H-[1,2,4]triazolo[4,3-a]pyridin-3-one], the 50% inhibitory concentration (IC50) is 0.0631 µM against human CCR6 [1] and 0.0398 µM against human CCR6 [2].

On to `Cc1cnc2ccc(-c3ccc(S(=O)(=O)N4CCC(Nc5ccc(S(F)(F)(F)(F)F)cc5)CC4)cn3)cn12` [Example 69, 1-[(6-{3-methylimidazo[1,2-a]pyridin-6-yl}pyridin-3-yl)sulfonyl]-N-[4-(pentafluoro-λ^6-sulfanyl)phenyl]piperidin-4-amine], for which the IC50 against human CCR6 [1] and on human CCR6 [2] was 0.794 µM each time.

Turning to `N#Cc1cnc2ccc(-c3ccc(S(=O)(=O)N4CCC(Nc5ccc(S(F)(F)(F)(F)F)cc5)CC4)c(F)c3)cn12` [Example 73, 6-{3-fluoro-4-[(4-{[4-(pentafluoro-λ^6-sulfanyl)phenyl]Amino}piperidin-1-yl)sulfonyl]phenyl}imidazo[1,2-a]pyridine-3-carbonitrile], the IC50 on human CCR6 [1] was 0.501 µM; against human CCR6 [2] it was 0.631 µM.

Consider `O=S(=O)(c1ccc(-c2ccc3nccn3c2)cc1F)N1CCC(Nc2ccc(S(F)(F)(F)(F)F)cc2)CC1` [Example 74, 1-(2-fluoro-4-{imidazo[1,2-a]pyridin-6-yl}benzenesulfonyl)-N-[4-(pentafluoro-λ^6-sulfanyl)phenyl]piperidin-4-amine], for which the IC50 is 0.501 µM against human CCR6 [1] and 0.794 µM on human CCR6 [2].

As for `N#Cc1cnc2ccc(-c3ccc(S(=O)(=O)N4CCC(Nc5ccc(S(F)(F)(F)(F)F)cc5)CC4)cn3)cn12` [Example 76, 6-{5-[(4-{[4-(pentafluoro-λ^6-sulfanyl)phenyl]Amino}piperidin-1-yl)sulfonyl]pyridin-2-yl}imidazo[1,2-a]pyridine-3-carbonitrile], the values for the IC50 on human CCR6 [1] and against human CCR6 [2] were 0.794 µM and 0.501 µM, respectively.

As to `CC(C)c1nnc2ccc(-c3ccc(S(=O)(=O)N4CCC(Nc5cccc(S(F)(F)(F)(F)F)c5)CC4)cc3)cn12` [Example 84, N-[3-(pentafluoro-λ^6-sulfanyl)phenyl]-1-{4-[3-(propan-2-yl)-[1,2,4]triazolo[4,3-a]pyridin-6-yl]benzenesulfonyl}piperidin-4-amine], the figures for the IC50 against human CCR6 [1] and against human CCR6 [2] were 0.0501 µM and 0.126 µM, respectively.

On to `CN(C)C(=O)c1ccc(-c2ccc(S(=N)(=O)[C@H]3CC[C@H](Nc4ccc(S(F)(F)(F)(F)F)cc4)CC3)cc2)cc1` (stereo partly drawn) [Example 92, N,N-dimethyl-4′-{[trans-4-{[4-(pentafluoro-λ^6-sulfanyl)phenyl]Amino}cyclohexyl]sulfonimidoyl}-[1,1′-biphenyl]-4-carboxamide], for which the IC50 on human CCR6 [1] is 0.2 µM; against human CCR6 [2] it was 1.58 µM.

As for `CNC(=O)c1ccc(-c2ccc(S(=N)(=O)[C@H]3CC[C@H](Nc4ccc(S(F)(F)(F)(F)F)cc4)CC3)cc2)cc1` (stereo partly drawn) [Example 95, N-methyl-4′-{[trans-4-{[4-(pentafluoro-λ^6-sulfanyl)phenyl]Amino}cyclohexyl]sulfonimidoyl}-[1,1′-biphenyl]-4-carboxamide], the IC50 was 0.251 µM against human CCR6 [1] and 0.501 µM at human CCR6 [2].

On to `N=S(=O)(c1ccc(-c2ccc(C(N)=O)cc2)cc1)[C@H]1CC[C@H](Nc2ccc(S(F)(F)(F)(F)F)cc2)CC1` (stereo partly drawn) [Example 96, 4′-{[trans-4-{[4-(pentafluoro-λ^6-sulfanyl)phenyl]Amino}cyclohexyl]sulfonimidoyl}-[1,1′-biphenyl]-4-carboxamide], for which the IC50 against human CCR6 [1] was 0.158 µM; on human CCR6 [2], 0.501 µM.

Turning to `CNC(=O)c1cccc(-c2ccc(S(=N)(=O)[C@H]3CC[C@H](Nc4ccc(S(F)(F)(F)(F)F)cc4)CC3)cc2)c1` (stereo partly drawn) [Example 98, N-methyl-4′-{[trans-4-{[4-(pentafluoro-λ^6-sulfanyl)phenyl]Amino}cyclohexyl]sulfonimidoyl}-[1,1′-biphenyl]-3-carboxamide], the IC50 at human CCR6 [1] was 0.2 µM; against human CCR6 [2], 0.251 µM.

`N=S(=O)(c1ccc(-c2cccc(C(N)=O)c2)cc1)[C@H]1CC[C@H](Nc2ccc(S(F)(F)(F)(F)F)cc2)CC1` (stereo partly drawn) [Example 99, 4′-{[trans-4-{[4-(pentafluoro-λ^6-sulfanyl)phenyl]Amino}cyclohexyl]sulfonimidoyl}-[1,1′-biphenyl]-3-carboxamide]: the IC50 was 0.2 µM at human CCR6 [1] and 0.501 µM against human CCR6 [2].

Values taken from patent US20260070902A1, “SULFONYL DERIVATIVES AS CCR6 INHIBITORS” (Hoffmann-La Roche Inc., priority 2022, published 2026).
